Experimental data from patent publication US11707500B2, “Growth promoting peptides, and uses thereof” (NURITAS LIMITED, priority 2015, dated 2023).

What was measured:
Assay type in all cases: cell-based
[1] = tested on: Human Dermal Fibroblasts (HDF); experiment: BrdU cell proliferation assay; conditions: HDF incubated 24 h with 5, 0.5 or 0.05 μg/ml synthetic peptide; percentage of untreated control
Method: BrDu is incorporated into newly synthesised DNA strands of actively proliferating cells. Following partial denaturation of double stranded DNA, Brdu is detected immunochemically allowing the assessment of the population of cells which are synthesizing DNA.
Human Dermal Fibroblasts (HDF—Sigma 10605a) were seeded in a 96 well plate at 10,000 cells per well in DMEM containing 10% fetal calf serum (FCS), 1% Pen/strep, 1% L-glutamine and allowed to adhere for 24 h.
Following the initial 24 h incubation the cells were incubated with 5 μg/ml, 0.5 μg/ml or 0.05 μg/ml synthetic peptide for 24 h respectively.
After 18 h incubation with synthetic peptides 20 μl BrDu reagent was added to each well.
At 24 h incubation the cell were fixed and the amount of […] was measured using the BrdU Cell Proliferation Assay, all steps were carried out according to the manufacturer's instructions.
Results were calculated as a percentage of the untreated control. An increase in optical density reading indicates greatER incorporation of BrDu and increase cell proliferation.

[2] = tested on: keratinocytes of the basal layer of the epidermis, human skin tissue explants; experiment: Ki67 immunohistochemistry (mitotic index) in skin explants; conditions: for % of Ki67 positive cells in the basal layer of the epidermis: peptides 20 μM (Peptide 8 10 μM), compositions 500 μg/mL, EGF 10 ng/mL; for number of mitotic cells compared to EGF at day 1: day 1, compared to EGF
Method: (§1) Skin explants were prepared from abdominal plastic surgery. Some explants were delipidated with alcohol to obtain a dehydrated skin.
(§2) These explants were maintained in maintenance medium supplied by the provider Bioprédic International for 5 days. Test items are applied twice per day with 5 μL per explant.
(§3) After receipt in the laboratory, each skin explant in the maintenance medium is delipidated with 5 μL alcohol during 3 hours.
(§4) After 3 hours, all skin explants are treated two per day with test items, and they are incubated at 37° C.+/−2° C., 5% CO2 for 1 day or 5 days. Integrity of the system is realized at day 1 and day 5 with a viability control with MTT.
Epithelial proliferation was analyzed by immunohistochemistry using anti-Ki67 antibody.
Counting the number of labeled cells (keratinocytes of the basal layer of the epidermis) is performed and provides the total number of basal cells to calculate the % of labeled cells.
The results of the immunohistochemical analysis of Ki67 are reported in Table 4 and expressed as % of labelled at the basal layer of the epidermis. […] Immunohistochemical analysis of mitotic activity is shown in annex 4 with a reminder of the average for each analysed conditions.

[3] = tested on: elastic fibers of the dermis, human skin tissue explants; experiment: Morphometric quantification of elastic fibers (elastin expression) in skin explants; conditions: for Morphometric quantification of elastic fibers in the middle dermis (%) / Morphometric quantification of elastic fibers in the superficial dermis (%): test items applied twice per day, 5 μL per explant, peptides 20 μM (Peptide 8 10 μM), compositions 500 μg/mL, EGF 10 ng/mL
Method: as §1, §2
For each time of analysis (D1 and D5), histologies on delipidated explants, treated explants with test items, the DMSO 0.3% control and water control, are performed.
as §3, §4
Histology is realized by the laboratory Gredeco and the immunostaining to elastin and Ki67 are realized by the same laboratory. Immunostaining to filaggrin is realized by the laboratory Intertek.
The immunohistochemical staining intensity in the elastic fibers is evaluated using a semi-quantitative histological score.
The percentage area taken up by elastic fibers in the dermis was calculated in the dermis and the average superficial dermis.

Substance: 470 (PHMP) [compound 470]
- INCREASE IN PROLIFERATION [1]: 119%

Substance: 471 (PHMPS) [compound 471]
- INCREASE IN PROLIFERATION [1]: 38%

Substance: 472 (PRRF) [compound 472]
- INCREASE IN PROLIFERATION [1]: 77%

Substance: 473 (WMKA) [compound 473]
- INCREASE IN PROLIFERATION [1]: 41%

Substance: 474 (DSINALEPDHR) [compound 474]
- INCREASE IN PROLIFERATION [1]: 121%

Substance: 477 (IFEDAITIPGR) [compound 477]
- INCREASE IN PROLIFERATION [1]: 81%

Substance: 478 (LDALEPDNRIESE) [compound 478]
- INCREASE IN PROLIFERATION [1]: 76%

Substance: 479 (KTLDYWPSLR) [compound 479]
- INCREASE IN PROLIFERATION [1]: 106%

Substance: 480 (RHGEWGPSY) [compound 480]
- INCREASE IN PROLIFERATION [1]: 102%

Substance: 482 (ILVDGSHDIER) [compound 482]
- INCREASE IN PROLIFERATION [1]: 113%

Substance: 495 (HPMS) [compound 495]
- INCREASE IN PROLIFERATION [1]: 68%

Substance: 497 (MPMP) [compound 497]
- INCREASE IN PROLIFERATION [1]: 58%

Substance: 499 (PNSM) [compound 499]
- INCREASE IN PROLIFERATION [1]: 113%

Substance: 500 (WDPA) [compound 500]
- INCREASE IN PROLIFERATION [1]: 6%

Substance: 501 (LRGFSK) [compound 501]
- INCREASE IN PROLIFERATION [1]: 43%

Substance: 502 (RSQNIF) [compound 502]
- INCREASE IN PROLIFERATION [1]: 68%

Substance: 503 (YLRGFS) [compound 503]
- INCREASE IN PROLIFERATION [1]: 125%

Substance: 504 (GALMLPHYN) [compound 504]
- INCREASE IN PROLIFERATION [1]: 119%

Substance: 505 (GALMLPHYNSR) [compound 505]
- INCREASE IN PROLIFERATION [1]: 118%

Substance: HGPVEMPYTLLYPSSK [0723.01]
- % of Ki67 positive cells in the basal layer of the epidermis ([2]; D 1): 18.57%
- % of Ki67 positive cells in the basal layer of the epidermis ([2]; D 5): 3.92%
- Morphometric quantification of elastic fibers in the middle dermis (%) ([3]; D 1): 7.59%
- Morphometric quantification of elastic fibers in the superficial dermis (%) ([3]; D 1): 4.45%
- elastic fibers in the middle dermis compared to the water control at D5 [3]: an increase
- Morphometric quantification of elastic fibers in the middle dermis (%) ([3]; D 5): 10.17%
- Morphometric quantification of elastic fibers in the superficial dermis (%) ([3]; D 5): 10.21%
- elastic fibers in the superficial dermis compared to control water [3]: increase by twice

Substance: LDALEPDNR [0723.03]
- % of Ki67 positive cells in the basal layer of the epidermis ([2]; D 1): 22.01%
- % of Ki67 positive cells in the basal layer of the epidermis ([2]; D 5): 10.04%
- Morphometric quantification of elastic fibers in the middle dermis (%) ([3]; D 1): 4.9%
- Morphometric quantification of elastic fibers in the superficial dermis (%) ([3]; D 1): 3%
- elastic fibers in the middle dermis compared to the water control at D5 [3]: an increase
- Morphometric quantification of elastic fibers in the middle dermis (%) ([3]; D 5): 9%
- Morphometric quantification of elastic fibers in the superficial dermis (%) ([3]; D 5): 11.68%
- elastic fibers in the superficial dermis compared to control water [3]: increase by twice

Substance: QQYGIAASPFLQSAA [0723.07]
- % of Ki67 positive cells in the basal layer of the epidermis ([2]; D 1): 22.22%
- % of Ki67 positive cells in the basal layer of the epidermis ([2]; D 5): 5.26%
- Morphometric quantification of elastic fibers in the middle dermis (%) ([3]; D 1): 6.46%
- Morphometric quantification of elastic fibers in the superficial dermis (%) ([3]; D 1): 4%
- Morphometric quantification of elastic fibers in the middle dermis (%) ([3]; D 5): 5.33%
- Morphometric quantification of elastic fibers in the superficial dermis (%) ([3]; D 5): 5.15%

Substance: RLQSQNDQRGEIIHVK [0723.02]
- % of Ki67 positive cells in the basal layer of the epidermis ([2]; D 1): 19.61%
- % of Ki67 positive cells in the basal layer of the epidermis ([2]; D 5): 6.73%
- Morphometric quantification of elastic fibers in the superficial dermis (%) ([3]; D 1): 6.09%
- elastic fibers in the middle dermis compared to the water control at D5 [3]: an increase
- Morphometric quantification of elastic fibers in the middle dermis (%) ([3]; D 5): 9.08%
- Morphometric quantification of elastic fibers in the superficial dermis (%) ([3]; D 5): 7.59%
- elastic fibers in the middle dermis at day 1 compared to control water ([3]; day 1, compared to control water): increase doubled

Substance: RPYYSNAPQEIF [0723.04]
- % of Ki67 positive cells in the basal layer of the epidermis ([2]; D 1): 14.97%
- % of Ki67 positive cells in the basal layer of the epidermis ([2]; D 5): 11.36%
- Morphometric quantification of elastic fibers in the middle dermis (%) ([3]; D 1): 5.22%
- Morphometric quantification of elastic fibers in the superficial dermis (%) ([3]; D 1): 3.28%
- Morphometric quantification of elastic fibers in the middle dermis (%) ([3]; D 5): 9%
- Morphometric quantification of elastic fibers in the superficial dermis (%) ([3]; D 5): 8.94%

Substance: SKPHTIFLPQHTDADYILVVLSGK [0723.08]
- % of Ki67 positive cells in the basal layer of the epidermis ([2]; D 1): 27.83%
- % of Ki67 positive cells in the basal layer of the epidermis ([2]; D 5): 5.72%
- number of mitotic cells compared to EGF at day 1 [2]: an increase
- Morphometric quantification of elastic fibers in the middle dermis (%) ([3]; D 1): 3.52%
- Morphometric quantification of elastic fibers in the superficial dermis (%) ([3]; D 1): 2.7%
- Morphometric quantification of elastic fibers in the middle dermis (%) ([3]; D 5): 7.27%
- Morphometric quantification of elastic fibers in the superficial dermis (%) ([3]; D 5): 5.32%

Substance: TVFDGVLRPGQL [0723.06]
- % of Ki67 positive cells in the basal layer of the epidermis ([2]; D 1): 31.97%
- % of Ki67 positive cells in the basal layer of the epidermis ([2]; D 5): 5.04%
- number of mitotic cells compared to EGF at day 1 [2]: an increase
- Morphometric quantification of elastic fibers in the middle dermis (%) ([3]; D 1): 4.54%
- Morphometric quantification of elastic fibers in the superficial dermis (%) ([3]; D 1): 3.8%
- Morphometric quantification of elastic fibers in the middle dermis (%) ([3]; D 5): 8.67%
- Morphometric quantification of elastic fibers in the superficial dermis (%) ([3]; D 5): 4.03%

Substance: VLLEQQEQEPQH [0723.05]
- % of Ki67 positive cells in the basal layer of the epidermis ([2]; D 1): 9.48%
- % of Ki67 positive cells in the basal layer of the epidermis ([2]; D 5): 3.08%
- Morphometric quantification of elastic fibers in the middle dermis (%) ([3]; D 1): 8.8%
- Morphometric quantification of elastic fibers in the superficial dermis (%) ([3]; D 1): 6.34%
- Morphometric quantification of elastic fibers in the middle dermis (%) ([3]; D 5): 6.61%
- Morphometric quantification of elastic fibers in the superficial dermis (%) ([3]; D 5): 6.26%
